{
  "source": "patent US6472398B1",
  "about": "“Spiropiperidine derivatives as melanocortin receptor agonists” (Merck & Co., Inc., priority 2000, dated 2002)",
  "origin": "cited, not measured here",
  "key": {"rodents": {"tested_on": "rodents", "conditions": "ICV; NPY, ob/ob, agouti, fasted feeding models"}, "[1]": {"tested_on": "males with psychogenic erectile dysfunction"}, "[2]": {"tested_on": "patients with erectile dysfunction", "conditions": "for duration of effect / onset of action: after an oral dose; for share of patients with adequate response: oral, men with erectile dysfunction"}},
  "data": [
    {"molecule": "Ac-Nle-c[Asp-His-DPhe-Arg-Trp-Lys]-NH2 [MT-II]", "values": [
      {"measurement": "effect on food intake", "setting": "rodents", "value": "reduces food intake"},
      {"measurement": "duration of action", "setting": "[1]; in vivo", "value": "approximately 2.5 hours"},
      {"measurement": "time to onset of erection", "setting": "[1]; in vivo", "value": "10 to 20", "unit": "min"},
      {"measurement": "absorption into the systemic circulation", "setting": "[1]; in vivo, po", "value": "not absorbed into the systemic circulation"},
      {"measurement": "response rate", "setting": "[1]; injected intramuscularly or subcutaneously", "value": 75, "unit": "%"}
    ]},
    {"molecule": "Cc1ccc(N(CC2=NCCN2)c2cccc(O)c2)cc1", "note": "[phentolamine]", "values": [
      {"measurement": "duration of effect", "setting": "[2]", "value": 2, "unit": "h"},
      {"measurement": "onset of action", "setting": "[2]", "value": "5 to 30", "unit": "min"},
      {"measurement": "share of patients with adequate response", "setting": "[2]", "value": "35-40%"}
    ]},
    {"molecule": "CCCc1nn(C)c2c(=O)[nH]c(-c3cc(S(=O)(=O)N4CCN(C)CC4)ccc3OCC)nc12", "note": "[sildenafil]", "values": [
      {"measurement": "duration of effect", "setting": "[2]", "value": "about 4 hours"},
      {"measurement": "onset of action", "setting": "[2]", "value": "30 to 60", "unit": "min"},
      {"measurement": "share of patients with adequate response", "setting": "[2]", "value": "about 70%"}
    ]},
    {"molecule": "SHU-9119", "values": [
      {"measurement": "effect on food intake", "setting": "rodents", "value": "reverses this effect and can induce hyperphagia"}
    ]}
  ]
}
